system: NICD (Notch intracellular domain) CSL-bla reporter in HeLa cells; assay: Notch assay (CellSensor T-REx NICD CSL-bla HeLa beta-lactamase reporter; Method 1 / Method 2); type: cell-based; details: Homo sapiens, 10 μM compound, Method 2 (40 nL of 1000× compound added to plate with Echo), read-out: inhibiton (%) at 10 μM
Excerpt: We used the CellSensor T-REx™ NICD CSL-bla HeLa cell line, which was engineered by lentiviral transduction of HeLa cells with a Notch response element driving beta-lactamase reporter gene expression (CSL-bla) along with DOX (doxycycline)-inducible NICD (Notch intracellular domain) constructs. Addition of DOX to these cells allows for regulated NICD transcription factor expression and subsequent beta-lactamase expression.
Specifically, the following protocol was used.
NOTCH ASSAY PROTOCOL (Method 2)
• 1. Add 40 nL/well of working concentration of 1000× compound to 384-well assay plate with Echo. • 2. Plate Cells: 35 μl/well of HeLa/T-REx™ NICD CSL-bla cells at 10^3 cells/well complete medium into 384-well plate. • 3. Add 5 μl 8× Doxycycline in Assay Medium to the treated wells, and 5 μl Assay Medium to the Untreated and cell free control wells. • 4. Incubate the assay plate in a humidified 37° C./5% CO2 incubator for 16-20 hours. • 5. Preparation of 6× LiveBLAzer™-FRET B/G Substrate (CCF4-AM) Mixture according to the manual and cell loading should be done in the absence of direct strong lighting. • 6. Remove assay plate from the humidified 37° C./5% CO2 incubator. Add 8 μl of 6× Substrate Mixture from Step 5 to each well. Cover the plate to protect it from light and evaporation. Incubate at room temperature for 4 hours. • 7. Reading an Assay Plate using the following filter selections:
• 8. Data analysis: Use the assay plate layout to identify the location of the Cell-free wells. These control wells are used for background subtraction. Determine the average emission from the Cell-free wells at both 460 nm (Average Blue Background) and 530 nm(Average Green Background). Subtract the Average Blue Background (data collected at 460 nm) from all of the blue emission data. Subtract the Average Green background (data collected at 530 nm) from all of the green emission data. Calculate the Blue/Green Emission Ratio for each well, by dividing the background-subtracted blue emission values by the background-subtracted green emission values.
Instead of Step 1 to Step 3, the following Step a to Step d can also be performed. The subsequent steps are the same as Method 2, after Step 4 (Method 1). • a. Plate Cells: 32 μL/well of HeLa/T-REx™ NICD CSL-bla cells at 10^3 cells/well complete medium into 384-well plate. • b. Prepare 10× compounds in assay medium. • c. Add 4 μL compounds or 1% DMSO in assay medium to the cells. • d. Add 4 μL 10×Doxycycline in Assay Medium to the treated wells, and 4 μL Assay Medium to the Untreated and cell free control wells.
The results are shown in Table 13 (Table 13-1 to Table 13-2).

SMILES	inhibition at 10 µM
NC(=O)C[C@H]1C(=O)N(CCc2ccccc2)CC2N(C(=O)OCC3CCCCC3)O[C@H](Cc3ccc(O)cc3)C(=O)N21 (stereo partly drawn) [Compound I-39, (3R,6S)-cyclohexylmethyl 6-(2-amino-2-oxoethyl)-3-(4-hydroxybenzyl)-4,7-dioxo-8-phenethylhexahydropyrazino [2,1-c][1,2,4]oxadiazine-1(6H)-carboxylate]	52.1%
CC[C@H](C)CN1CC2N(C(=O)OCC(C)C)O[C@H](CC3CCCCC3)C(=O)N2[C@@H](CCCCN)C1=O (stereo partly drawn) [Compound I-40, (3R,6S)-isobutyl 6-(4-aminobutyl)-3-(cyclohexylmethyl)-8-((S)-2-methylbutyl)-4,7-dioxohexahydropyrazino[2,1-c][1,2,4]oxadiazine-1(6H)-carboxylate]	124%
CC(C)C[C@H]1C(=O)N(CCc2ccc(O)cc2)CC2N(C(=O)OCCc3ccc(O)cc3)O[C@H](Cc3ccc(O)cc3)C(=O)N21 (stereo partly drawn) [Compound I-41, (3R,6S)-4-hydroxyphenethyl 3-(4-hydroxybenzyl)-8-(4-hydroxyphenethyl)-6-isobutyl-4,7-dioxohexahydropyrazino[2,1-c][1,2,4]oxadiazine-1(6H)-carboxylate]	59.3%
COC(=O)N1O[C@H](CC2CCCCC2)C(=O)N2C1CN(CCc1cccc3ccccc13)C(=O)[C@@H]2CCCCN (stereo partly drawn) [Compound I-42, (3R,6S)-methyl 6-(4-aminobutyl)-3-(cyclohexylmethyl)-8-(2-(naphthalen-1-yl)ethyl)-4,7-dioxohexahydropyrazino[2,1-c][1,2,4]oxadiazine-1(6H)-carboxylate]	95%
COC(=O)N1O[C@H](Cc2ccc(O)cc2)C(=O)N2C1CN(CCc1cccc3ccccc13)C(=O)[C@@H]2C (stereo partly drawn) [Compound I-43, (3R,6S)-methyl 3-(4-hydroxybenzyl)-6-methyl-8-(2-(naphthalen-1-yl)ethyl)-4,7-dioxohexahydropyrazino[2,1-c][1,2,4]oxadiazine-1(6H)-carboxylate]	52.9%
CC(C)[C@H]1C(=O)N(CCc2cccc3ccccc23)CC2N(C(=O)OCc3ccccc3)O[C@H](Cc3ccc(O)cc3)C(=O)N21 (stereo partly drawn) [Compound I-44, (3R,6S)-benzyl 3-(4-hydroxybenzyl)-6-isopropyl-8-(2-(naphthalen-1-yl)ethyl)-4,7-dioxohexahydropyrazino[2,1-c][1,2,4]oxadiazine-1(6H)-carboxylate]	63.1%
CCCC[C@H]1C(=O)N(CCc2cccc3ccccc23)CC2N(C(=O)OCCc3ccc(O)cc3)O[C@H](Cc3ccc(O)cc3)C(=O)N21 (stereo partly drawn) [Compound I-45, (3R,6S)-4-hydroxyphenethyl 6-butyl-3-(4-hydroxybenzyl)-8-(2-(naphthalen-1-yl)ethyl)-4,7-dioxohexahydropyrazino[2,1-c][1,2,4]oxadiazine-1(6H)-carboxylate]	54.9%
CC[C@H](C)[C@H]1C(=O)N(CCc2cccc3ccccc23)CC2N(C(=O)OCCc3ccc(O)cc3)O[C@H](Cc3ccc(O)cc3)C(=O)N21 (stereo partly drawn) [Compound I-46, (3R,6S)-4-hydroxyphenethyl 6-((S)-sec-butyl)-3-(4-hydroxybenzyl)-8-(2-(naphthalen-1-yl)ethyl)-4,7-dioxohexahydropyrazino[2,1-c][1,2,4]oxadiazine-1(6H)-carboxylate]	75.6%
O=C1[C@H](CO)N2C(=O)[C@@H](Cc3ccc(O)cc3)ON(C(=O)OCC3CCCCC3)C2CN1CCc1cccc2ccccc12 (stereo partly drawn) [Compound I-47, (3R,6S)-cyclohexylmethyl 3-(4-hydroxybenzyl)-6-(hydroxymethyl)-8-(2-(naphthalen-1-yl)ethyl)-4,7-dioxohexahydropyrazino[2,1-c][1,2,4]oxadiazine-1(6H)-carboxylate]	71.4%
O=C1[C@H](CO)N2C(=O)[C@@H](Cc3ccc(O)cc3)ON(C(=O)OCc3ccccc3)C2CN1CCc1cccc2ccccc12 (stereo partly drawn) [Compound I-48, (3R,6S)-benzyl 3-(4-hydroxybenzyl)-6-(hydroxymethyl)-8-(2-(naphthalen-1-yl)ethyl)-4,7-dioxohexahydropyrazino[2,1-c][1,2,4]oxadiazine-1(6H)-carboxylate]	57.3%
NC(=O)C[C@H]1C(=O)N(CCc2cccc3ccccc23)CC2N(C(=O)OCC3CCCCC3)O[C@H](Cc3ccc(O)cc3)C(=O)N21 (stereo partly drawn) [Compound I-49, (3R,6S)-cyclohexylmethyl 6-(2-amino-2-oxoethyl)-3-(4-hydroxybenzyl)-8-(2-(naphthalen-1-yl)ethyl)-4,7-dioxohexahydropyrazino[2,1-c][1,2,4]oxadiazine-1(6H)-carboxylate]	92.6%
CCCCOC(=O)N1O[C@H](CCC(N)=O)C(=O)N2C1CN(CCO)C(=O)[C@@H]2C (stereo partly drawn) [Compound I-50, (3R,6S)-butyl 3-(3-amino-3-oxopropyl)-8-(2-hydroxyethyl)-6-methyl-4,7-dioxohexahydropyrazino[2,1-c][1,2,4]oxadiazine-1(6H)-carboxylate]	64.6%
CC(C)NC(=O)N1O[C@H](CCCNC(=N)N)C(=O)N2C1CN(Cc1cccc3ccccc13)C(=O)[C@@H]2C (stereo partly drawn) [Compound I-51, (3R,6S)-3-(3-guanidinopropyl)-N-isopropyl-6-methyl-8-(naphthalen-1-ylmethyl)-4,7-dioxohexahydropyrazino[2,1-c][1,2,4]oxadiazine-1(6H)-carboxamide]	55.3%
C[C@H]1C(=O)N(Cc2cccc3ccccc23)CC2N(C(=O)OCC3CCCCC3)O[C@H](CCCNC(=N)N)C(=O)N21 (stereo partly drawn) [Compound I-52, (3R,6S)-cyclohexylmethyl 3-(3-guanidinopropyl)-6-methyl-8-(naphthalen-1-ylmethyl)-4,7-dioxohexahydropyrazino[2,1-c][1,2,4]oxadiazine-1(6H)-carboxylate]	51.4%
C[C@H]1C(=O)N(CCC(c2ccccc2)c2ccccc2)CC2N(C(=O)OCC3CCCCC3)O[C@H](CCCNC(=N)N)C(=O)N21 (stereo partly drawn) [Compound I-53, (3R,6S)-cyclohexylmethyl 8-(3,3-diphenylpropyl)-3-(3-guanidinopropyl)-6-methyl-4,7-dioxohexahydropyrazino[2,1-c][1,2,4]oxadiazine-1(6H)-carboxylate]	53.6%
NC(=O)CC[C@H]1ON(C(=O)NCCC(c2ccccc2)c2ccccc2)C2CN(Cc3cccc4ccccc34)C(=O)[C@H](Cc3ccccc3)N2C1=O (stereo partly drawn) [Compound I-54, (3R,6S)-3-(3-amino-3-oxopropyl)-6-benzyl-N-(3,3-diphenylpropyl)-8-(naphthalen-1-ylmethyl)-4,7-dioxohexahydropyrazino[2,1-c][1,2,4]oxadiazine-1(6H)-carboxamide]	60.4%
CC(C)C[C@H]1ON(C(=O)NCCC(c2ccccc2)c2ccccc2)C2CN(Cc3ccc4ccccc4c3)C(=O)[C@H](CCC(N)=O)N2C1=O (stereo partly drawn) [Compound I-55, (3R,6S)-6-(3-amino-3-oxopropyl)-N-(3,3-diphenylpropyl)-3-isobutyl-8-(naphthalen-2-ylmethyl)-4,7-dioxohexahydropyrazino[2,1-c][1,2,4]oxadiazine-1(6H)-carboxamide]	58.7%
CC(C)C[C@H]1ON(C(=O)NCCC(c2ccccc2)c2ccccc2)C2CN(CCC(c3ccccc3)c3ccccc3)C(=O)[C@H](CCC(N)=O)N2C1=O (stereo partly drawn) [Compound I-56, (3R,6S)-6-(3-amino-3-oxopropyl)-N,8-bis(3,3-diphenylpropyl)-3-isobutyl-4,7-dioxohexahydropyrazino[2,1-c][1,2,4]oxadiazine-1(6H)-carboxamide]	53%
CCCCCCNC(=O)N1O[C@H](Cc2ccccc2)C(=O)N2C1CN(CCC(c1ccccc1)c1ccccc1)C(=O)[C@@H]2CCC(N)=O (stereo partly drawn) [Compound I-57, (3R,6S)-6-(3-amino-3-oxopropyl)-3-benzyl-8-(3,3-diphenylpropyl)-N-hexyl-4,7-dioxohexahydropyrazino[2,1-c][1,2,4]oxadiazine-1(6H)-carboxamide]	63.4%
O=C(NCCO)[C@H](Cc1ccccc1)N1CC2N(C(=O)OCCc3ccc(O)cc3)O[C@H](Cc3ccccc3)C(=O)N2[C@@H](Cc2ccccc2)C1=O (stereo partly drawn) [Compound I-80, 4-hydroxyphenethyl (3R,6S)-3,6-dibenzyl-8-(S)-1-(2-hydroxyethyl)amino)-1-oxo-3-phenylpropan-2-yl)-4,7-dioxohexahydropyrazino[2,1-c][1,2,4]oxadiazine-1(6H)-carboxylate]	63%

Reference: US20230374034A1, “NOVEL BICYCLIC COMPOUNDS” (PRISM BIOLAB CO., LTD., priority 2020, published 2023)
